Experimental findings from patent US6159953A, “Anti-malarial composition and method of use” (Catholic University of America, priority 1992, dated 2000) are described below.

As a reminder, the IC50 is the midpoint of a concentration-inhibition curve.

Data set [1] relates to L-1210 mouse lymphocytic leukemia cells. Put plainly: Toxicity to cultured L-1210 cells, number of viable cells. It is filed as cell-based. The source says: (§1) 2. Effects of orotate analogues on cell viability and the ability to synthesize nucleic acids from radioactive precursors, and the rescuing effects of normal pyrimidine bases or nucleosides or amino acid derivatives such as histidinol, can be tested in human-derived tissue culture cell lines. Human HT-1080 human sarcoma cells [Rusheed, S., et al., Cancer, 33:1027-30 (1974)], human diploid IMR-90 cells [Nichols, W. W., et al., Science, 196:60-3 (1977)], human cervical […] HeLa S3 cells [Puck, T. T., et al., J. Exp. Med., 103:273-84 (1956)], HL-60 human myeloid leukemia cells [Collins, S. J., et al., Nature, 270:347-9 (1977)], and mouse leukemia L-1210 cells [Moore, G. E., J. Nat. […] The growth medium most suitable for each cell line can be determined by reference to the publications cited above: briefly, HT-1080 cells are maintained in Eagle's Minimal Essential Medium (EMEM) supplemented with 5% fetal bovine serum (FBS) and 2 mM L-glutamine; IMR-90 cells are grown in EMEM supplemented with 10% FBS, 10 mM Hepes buffer, 0.21% NaHCO3, and 2 mM L-glutamine. […]
(§2) Toxicity of pyrimidine analogues to cultured human cells is determined as follows. […] Thereafter, the number of cells in each well is determined. […] Cells that grow in suspension (e.g., HL-60 and L-1210 cells) are transferred to centrifuge tubes, pelleted at low speed, washed, and the viability determined as above. […]

Data set [2] has as its system HT-1080 human fibrosarcoma cells. Description: Toxicity to cultured HT-1080 cells, number of viable cells. The data set is classed as cell-based. Particulars: for IC50: Homo sapiens. On the procedure:
Each data point represents an average of two determinations. […] Each data point represents an average of two determinations.
Half shaded symbols represent overlapping data points.
Toxicity of pyrimidine analogues to cultured human cells is determined as follows. Mammalian cells are seeded into culture plate wells, and growth medium is added. The following day, fresh culture medium containing the appropriate pyrimidine analogues is added to the wells, and the plates incubated for a period of time and at a temperature appropriate to the cell line and the experimental requirements. Thereafter, the number of cells in each well is determined. […] Cells that grow in suspension (e.g., HL-60 and L-1210 cells) are transferred to centrifuge tubes, pelleted at low speed, washed, and the viability determined as above.
HT-1080 cells were seeded into 6-well culture plates at a density of 50,000 cells per 9.6 cm^2 well. Each well contained 2.5 ml of growth medium. […] After 1 minute, the detached cells were suspended in 1.0 ml of EMEM and collected by centrifugation at 300×g for 3 minutes. […] The concentrations of viable cells were determined in a hemocytometer.

In data set [3] the test system is IMR-90 human lung fibroblast cells. Description: Toxicity to cultured IMR-90 cells, number of viable cells. It is filed as cell-based.
From the text: as §1, §2

Data set [4] deals with HeLa S3 human cervix epithelioid carcinoma cells. Put plainly: Toxicity to cultured HeLa S3 cells, number of viable cells. The data set is classed as cell-based.
From the text: as §1, §2

The test system of data set [5] is mammalian cell lines. Put plainly: Toxicity to a battery of mammalian cell lines. The data set is classed as cell-based, human and mouse.
From the text: as §1, §2

Data set [6] relates to Plasmodium falciparum, Sierra Leone clone. Put plainly: [U-14C]-isoleucine incorporation into parasite protein, Sierra Leone clone. The data set is classed as cell-based, P. falciparum. Particulars: Table 2, isoleucine uptake. As for the experimental part:
3. […] Agents Chemotherap., 16:710-18 (1979)].
The chloroquine-sensitive Sierra Leone clone of P. falciparum was cultured in erythrocytes as in Example 1 above. In one method of determining the toxicity of 5-fluoro-orotate, [G-^3 H]-hypoxanthine uptake was used as an indicator of parasite proliferation, according to the procedure of Example 1 above. In a second method, the increase in parasitemia was determined directly by smearing infected erythrocytes on microscope slides, staining with Giemsa stain, and determining the ratio of infected to non-infected erythrocytes. In a third method, parasite-infected erythrocytes were incubated with [U-^14 C]-isoleucine (0.5 μCi; 0.33 Ci/mmol), and the amount of radioactivity incorporated into precipitable proteins determined.

Like-named read-outs stand apart in the source and are kept apart here.

With `O=C(O)c1[nH]c(=O)[nH]c(=O)c1F` [5-fluoro-orotate], the half-inhibitory concentration (IC50) in data set [1] (L1210, L-1210, with 1 mM uridine, read-out: IC50 With 1 mM Uridine) is 5 µM; in data set [1] (L1210, L-1210, without uridine, read-out: IC50 Without Uridine), 2.8 µM; in data set [2] (HT-1080, 48 h, read-out: IC50 (50% inhibition)), around 10 µM; in data set [2] (HT-1080, read-out: IC50 With 1 mM Uridine), 50 µM; in data set [2] (HT-1080, read-out: IC50 Without Uridine), 10 µM; in data set [3] (IMR-90, with 1 mM uridine, read-out: IC50 With 1 mM Uridine) it was 2.2 µM. In addition, the concentration for half-maximal inhibition (IC50) in data set [3] (IMR-90, without uridine, read-out: IC50 Without Uridine) was 1.1 µM; in data set [4] (HeLa S3, with 1 mM uridine, read-out: IC50 With 1 mM Uridine), 3.5 µM; in data set [4] (HeLa S3, without uridine, read-out: IC50 Without Uridine) it was 2 µM; in data set [5] (read-out: IC50 range over the mammalian cell lines), 0.9 to 10 µM; in data set [6], 0.0047 µM. The “decrease of cytotoxicity by 1 mM uridine” value in data set [2] (HT-1080, 48 h, simultaneous 1 mM uridine (FIG. 2)) was 5 -fold. Further, in data set [5] (0.1 to 1 μM, in culture), the “toxicity to rapidly dividing mammalian cells” value is on record as “not toxic to rapidly dividing mammalian cells in culture”.
